Data as given in the NIST ThermoML archive (doi:10.1021/je300083m).
± gives the expanded uncertainty stated by the source.

Test: mn = molality of the nth substance listed, in mol/kg
Settings: 101 kPa, Liquid, m1 = 0.512

Row | Compound | mass density (298.15 K) | mass density (303.15 K) | mass density (308.15 K) | mass density (313.15 K) | mass density (318.15 K) | mass density (323.15 K)
1 | O=[N+]([O-])[O-].[K+] [potassium nitrate] + O | 1027.98 ± 0.22 kg/m3 | 1026.22 ± 0.22 kg/m3 | 1024.1 ± 0.21 kg/m3 | 1022.05 ± 0.21 kg/m3 | 1020.2 ± 0.21 kg/m3 | 1018.2 ± 0.2 kg/m3
2 | O=S(=O)([O-])[O-].[K+].[K+] [potassium sulfate] + O | 1063.81 ± 0.3 kg/m3 | 1062.02 ± 0.29 kg/m3 | 1060.06 ± 0.29 kg/m3 | 1057.74 ± 0.29 kg/m3 | 1055.14 ± 0.28 kg/m3 | 1052.95 ± 0.28 kg/m3
